Converted amounts (≈) assume the structure as drawn. Numbered stars: 1 amine (or outer) side, 2 acyl side, 3 side chain; on linkers, the order of the positions; unused ones are H or OH. Bridge positions count the residues as written; N and C are the ends. Square brackets hold non-standard residues; d marks the D form. Peptide text beside a SMILES is read from it. * marks the point of attachment. ξ: configuration not given here. NMeTrp(4-OMe) = CN[CH](Cc1c[nH]c2cccc(OC)c12)C(=O)O; X1 = O=C(C(N[*:1])C(O)c1ccccc1)[*:2]; NMeI = CC[CH](C)[CH](NC)C(=O)O; ξNMe2Val = CC(C)C(C(=O)*)N(C)C; NMeT = CN[CH](C(=O)O)[CH](C)O; NMeL = CN[CH](CC(C)C)C(=O)O; NMeV = CN[CH](C(=O)O)C(C)C
Assays:
[1] = system: M. tuberculosis strain resistant to streptomycin (SM)
[2] = system: M. tuberculosis strain resistant to rifampin (RMP)
[3] = system: M. tuberculosis strain resistant to cycloserine (CS)
[4] = system: M. tuberculosis strain resistant to kanamycin (KM)
[5] = system: M. tuberculosis strain resistant to isoniazid (INH)
[6] = system: M. tuberculosis strain resistant to capreomycin (CAP)
[7] = system: M. tuberculosis strain resistant to moxifloxacin (Mox)

Compound	MIC [1] [µM]	MIC [2] [µM]	MIC [3] [µM]	MIC [4] [µM]	MIC [5] [µM]	MIC [6] [µM]	MIC [7] [µM]
CCC(C)C(C(=O)NC1C(=O)N(C)C(C(C)O)C(=O)NC(C(C)C)C(=O)N(C)C(CC(C)C)C(=O)NC(C(C)C)C(=O)N(C)C(C(C)C)C(=O)N(C)C(Cc2c[nH]c3cccc(OC)c23)C(=O)NC(C(C)C)C(=O)NC(Cc2ccccc2)C(=O)NC(C(C)C)C(=O)OC1C)N(C)C(=O)C(NC(=O)C(C(C)C)N(C)C)C(C)C (centres unmarked) [H-16] (ξNMe2Val-V[NMeI]T[NMeT]V[NMeL]V[NMeV][NMeTrp(4-OMe)]VFV; ester 3-C; configuration not given here)	<0.12	0.18 (≈ 0.285 µg/mL)	<0.12	<0.12	<0.12	0.3 (≈ 0.475 µg/mL)	0.3 (≈ 0.475 µg/mL)
CCC(C)C(C(=O)NC1C(=O)N(C)C(C(C)O)C(=O)NC(C(C)C)C(=O)N(C)C(CC(C)C)C(=O)NC(C(C)C)C(=O)N(C)C(C(C)C)C(=O)N(C)C(Cc2c[nH]c3cccc(OC)c23)C(=O)NC(C(C)C)C(=O)NC(C(O)c2ccccc2)C(=O)NC(C(C)C)C(=O)OC1C)N(C)C(=O)C(NC(=O)C(C(C)C)N(C)C)C(C)C (centres unmarked) [H-14] (ξNMe2Val-V[NMeI]T[NMeT]V[NMeL]V[NMeV][NMeTrp(4-OMe)]V[X1]V; ester 3-C; configuration not given here)	<0.12	0.19 (≈ 0.304 µg/mL)	<0.12	<0.12	<0.12	0.29 (≈ 0.464 µg/mL)	0.31 (≈ 0.496 µg/mL)

Reference: patent publication US9090667B2, “Cyclic peptide from Nonomuraea sp., process for the production thereof, and pharmaceutical composition for the prevention or treatment of mycobacteria related disease comprising the same” (priority 2011, dated 2015)
